Measurements as given in the supplement of paper PMC10307832.

How the values were obtained:
Assay in all cases: relative viability (nuclei count vs DMSO), 5 days (fraction); higher = more cells survive
Temozolomide = compound: Cn1nnc2c(C(N)=O)ncn2c1=O [Temozolomide]
Outline: (§1)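 Acceptance criteria were a control CV below 25% and at least one doubling per plate. Lung cancer cell lines in 1536-well plates got five library-drug doses (not always all listed) √10 apart by pinning and were left 5 days with no medium change. Viability divides treated-well nuclei by vehicle-well nuclei and is the median across plates. Nuclei were counted by MetaXpress from 4× Hoechst images.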

AZD5582 = compound: C[C@@H](C(=O)N[C@@H](C1CCCCC1)C(=O)N2CCC[C@H]2C(=O)N[C@@H]3[C@@H](CC4=CC=CC=C34)OCC#CC#CCO[C@@H]5CC6=CC=CC=C6[C@@H]5NC(=O)[C@@H]7CCCN7C(=O)[C@H](C8CCCCC8)NC(=O)[C@H](C)NC)NC [AZD5582]
Outline: as §1

[1] = compound: Cn1nnc2c(C(N)=O)ncn2c1=O [Temozolomide] + C[C@@H](Oc1cc(-c2cnn(C3CCNCC3)c2)cnc1N)c1c(Cl)ccc(F)c1Cl [Crizotinib] (partner 1 µM)
Outline: (§2)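 Nuclei were stained with Hoechst during a one-step fixation (final 0.05% Triton X-100, 1% formaldehyde, 1 ug/ml Hoechst) carried out 5 days after dosing, then counted on 4× images. The cells, lung cancer lines in 1536-well plates, had been dosed by pin tool the day after seeding with one drug alone or a fixed anchor-drug dose plus five library-drug doses (not always all listed) in √10 steps. Relative viability is the nuclei count in treated wells divided by that in vehicle wells, and each value is the median of duplicate plates.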

AZD5582 + Lapatinib = compound: C[C@@H](C(=O)N[C@@H](C1CCCCC1)C(=O)N2CCC[C@H]2C(=O)N[C@@H]3[C@@H](CC4=CC=CC=C34)OCC#CC#CCO[C@@H]5CC6=CC=CC=C6[C@@H]5NC(=O)[C@@H]7CCCN7C(=O)[C@H](C8CCCCC8)NC(=O)[C@H](C)NC)NC [AZD5582] + CS(=O)(=O)CCNCc1ccc(-c2ccc3ncnc(Nc4ccc(OCc5cccc(F)c5)c(Cl)c4)c3c2)o1 [Lapatinib] (partner 2 µM)
Outline: as §2

## NCI-H1703
Temozolomide; 0.2 µM
  relative viability: 0.986
Temozolomide; 0.6325 µM
  relative viability: 0.947
Temozolomide; 2 µM
  relative viability: 1.29
Temozolomide; 6.325 µM
  relative viability: 0.825
Temozolomide; 20 µM
  relative viability: 0.965
AZD5582; 0.005 µM
  relative viability: 0.853
AZD5582; 0.01581 µM
  relative viability: 0.952
AZD5582; 0.05 µM
  relative viability: 0.925
[1]; first compound 0.2 µM
  relative viability: 0.746
[1]; first compound 0.6325 µM
  relative viability: 0.648
[1]; first compound 2 µM
  relative viability: 0.876
[1]; first compound 6.325 µM
  relative viability: 0.8
[1]; first compound 20 µM
  relative viability: 0.846
AZD5582 + Lapatinib; first compound 0.001581 µM
  relative viability: 0.815
AZD5582 + Lapatinib; first compound 0.005 µM
  relative viability: 0.691
AZD5582 + Lapatinib; first compound 0.01581 µM
  relative viability: 1.16
AZD5582 + Lapatinib; first compound 0.05 µM
  relative viability: 0.681
